Laboratory results published in ChEMBL document CHEMBL1201862, “PubChem BioAssay data set” (2004).
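Briefly, cells in 96-well plates were exposed to five compound concentrations for 48 h, and endpoints were estimated by linear interpolation. GI50 is the concentration that inhibits growth by half.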 Calls of active or inactive are those of the source. Rule as the data show it: active = GI50 up to about 1.1 µM and inactive = higher.

Experiments:
Assay in all cases: growth of human tumour cells (NCI), 48 h
K562 = test system: K562
OVCAR-3 = test system: OVCAR-3
RPMI-8226 = test system: RPMI-8226
IGROV-1 = test system: IGROV-1
NCI-H226 = test system: NCI-H226
SNB-75 = test system: SNB-75
EKVX = test system: EKVX
MDA-MB-231 = test system: MDA-MB-231
CAKI-1 = test system: CAKI-1
SK-OV-3 = test system: SK-OV-3
NCI/ADR-RES = test system: NCI/ADR-RES
U-251 = test system: U-251
NCI-H23 = test system: NCI-H23
BT-549 = test system: BT-549
SN12C = test system: SN12C
A549 = test system: A549
HOP-92 = test system: HOP-92
SF-295 = test system: SF-295
T47D = test system: T47D
SK-MEL-2 = test system: SK-MEL-2
LOX IMVI = test system: LOX IMVI
COLO 205 = test system: COLO 205
RXF 393 = test system: RXF 393
SK-MEL-5 = test system: SK-MEL-5
UACC-257 = test system: UACC-257
MDA-MB-435 = test system: MDA-MB-435
NCI-H522 = test system: NCI-H522
HCT-116 = test system: HCT-116
PC-3 = test system: PC-3
OVCAR-4 = test system: OVCAR-4
MOLT-4 = test system: MOLT-4
UACC-62 = test system: UACC-62
HL-60 = test system: HL-60
TK-10 = test system: TK-10
SK-MEL-28 = test system: SK-MEL-28
OVCAR-5 = test system: OVCAR-5
A498 = test system: A498
SW-620 = test system: SW-620
Malme-3M = test system: Malme-3M
OVCAR-8 = test system: OVCAR-8
SF-268 = test system: SF-268
ACHN = test system: ACHN
NCI-H460 = test system: NCI-H460
HCT-15 = test system: HCT-15
HCC 2998 = test system: HCC 2998
CCRF-CEM = test system: CCRF-CEM
786-0 = test system: 786-0
SR = test system: SR
KM12 = test system: KM12
MCF7 = test system: MCF7
SF-539 = test system: SF-539
HOP-62 = test system: HOP-62
UO-31 = test system: UO-31
Hs-578T = test system: Hs-578T
DU-145 = test system: DU-145
M14 = test system: M14
SNB-19 = test system: SNB-19
HT-29 = test system: HT-29
MDA-N = test system: MDA-N

O=C1/C(=C/c2cccc(O)c2)COc2ccccc21
GI50 (K562): 2.78 µM (inactive)
GI50 (OVCAR-3): 2.01 µM (inactive)
GI50 (RPMI-8226): 1.15 µM (inactive)
GI50 (IGROV-1): 7.96 µM (inactive)
GI50 (NCI-H226): 11.4 µM (inactive)
GI50 (SNB-75): 15.5 µM (inactive)
GI50 (EKVX): 16.5 µM (inactive)
GI50 (MDA-MB-231): 8.2 µM (inactive)
GI50 (CAKI-1): 3.44 µM (inactive)
GI50 (SK-OV-3): 21.3 µM (inactive)
GI50 (NCI/ADR-RES): 2.17 µM (inactive)
GI50 (U-251): 1.87 µM (inactive)
GI50 (NCI-H23): 5.74 µM (inactive)
GI50 (BT-549): 15.5 µM (inactive)
GI50 (SN12C): 8.04 µM (inactive)
GI50 (A549): 20 µM (inactive)
GI50 (HOP-92): 16.9 µM (inactive)
GI50 (SF-295): 15.7 µM (inactive)
GI50 (T47D): 6.47 µM (inactive)
GI50 (SK-MEL-2): 18 µM (inactive)
GI50 (LOX IMVI): 1.95 µM (inactive)
GI50 (COLO 205): 13.5 µM (inactive)
GI50 (RXF 393): 10.1 µM (inactive)
GI50 (SK-MEL-5): 9.2 µM (inactive)
GI50 (UACC-257): 2.64 µM (inactive)
GI50 (MDA-MB-435): 5.73 µM (inactive)
GI50 (NCI-H522): 2.51 µM (inactive)
GI50 (HCT-116): 1.75 µM (inactive)
GI50 (PC-3): 7.83 µM (inactive)
GI50 (OVCAR-4): 5.32 µM (inactive)
GI50 (MOLT-4): 2.24 µM (inactive)
GI50 (UACC-62): 3.88 µM (inactive)
GI50 (HL-60): 4.5 µM (inactive)
GI50 (TK-10): 15.4 µM (inactive)
GI50 (SK-MEL-28): 4.45 µM (inactive)
GI50 (OVCAR-5): 8.67 µM (inactive)
GI50 (A498): 20.3 µM (inactive)
GI50 (SW-620): 2.19 µM (inactive)
GI50 (Malme-3M): 8.89 µM (inactive)
GI50 (OVCAR-8): 7.38 µM (inactive)
GI50 (SF-268): 18.4 µM (inactive)
GI50 (ACHN): 1.78 µM (inactive)
GI50 (NCI-H460): 20.8 µM (inactive)
GI50 (HCT-15): 1.42 µM
GI50 (HCC 2998): 0.029 µM (active)
GI50 (CCRF-CEM): 1.59 µM (inactive)
GI50 (786-0): 4.69 µM (inactive)
GI50 (SR): 2.16 µM (inactive)
GI50 (KM12): 2.15 µM (inactive)
GI50 (MCF7): 3.63 µM (inactive)
GI50 (SF-539): 9.86 µM (inactive)
GI50 (HOP-62): 15 µM (inactive)
GI50 (UO-31): 10.5 µM (inactive)
GI50 (Hs-578T): 9.77 µM (inactive)
GI50 (DU-145): 14.2 µM (inactive)
GI50 (M14): 4.27 µM (inactive)
GI50 (SNB-19): 7.11 µM (inactive)
GI50 (HT-29): 3.27 µM (inactive)

CC(=O)NC1C(OCc2ccccc2)OC(CO)C(O)C1OCC(=O)NC(C)C(=O)NC(CCC(=O)OCCNC(=O)c1cccc2cc3ccccc3nc12)C(N)=O (configuration not stated)
GI50 (K562): 39.1 µM (inactive)
GI50 (OVCAR-3): 20.5 µM (inactive)
GI50 (RPMI-8226): 1.33 µM (inactive)
GI50 (IGROV-1): 17.8 µM (inactive)
GI50 (NCI-H226): 18.5 µM (inactive)
GI50 (SNB-75): 20.5 µM (inactive)
GI50 (EKVX): 24.9 µM (inactive)
GI50 (CAKI-1): 14.8 µM (inactive)
GI50 (SK-OV-3): 21.6 µM (inactive)
GI50 (NCI/ADR-RES): 21.6 µM (inactive)
GI50 (U-251): 18.4 µM (inactive)
GI50 (NCI-H23): 20.7 µM (inactive)
GI50 (BT-549): 20.3 µM (inactive)
GI50 (SN12C): 22.3 µM (inactive)
GI50 (A549): 6.11 µM (inactive)
GI50 (HOP-92): 23.2 µM (inactive)
GI50 (SF-295): 21.4 µM (inactive)
GI50 (T47D): 22.5 µM (inactive)
GI50 (SK-MEL-2): 26.4 µM (inactive)
GI50 (LOX IMVI): 11.2 µM (inactive)
GI50 (COLO 205): 21.3 µM (inactive)
GI50 (RXF 393): 16.5 µM (inactive)
GI50 (SK-MEL-5): 17 µM (inactive)
GI50 (UACC-257): 28.2 µM (inactive)
GI50 (MDA-MB-435): 17.2 µM (inactive)
GI50 (NCI-H522): 16.8 µM (inactive)
GI50 (HCT-116): 10.4 µM (inactive)
GI50 (PC-3): 27.4 µM (inactive)
GI50 (OVCAR-4): 20.8 µM (inactive)
GI50 (MOLT-4): 6.82 µM (inactive)
GI50 (UACC-62): 15.7 µM (inactive)
GI50 (HL-60): 22.2 µM (inactive)
GI50 (TK-10): 16.1 µM (inactive)
GI50 (SK-MEL-28): 19.4 µM (inactive)
GI50 (OVCAR-5): 22.1 µM (inactive)
GI50 (SW-620): 25.2 µM (inactive)
GI50 (Malme-3M): 15.6 µM (inactive)
GI50 (OVCAR-8): 18 µM (inactive)
GI50 (SF-268): 22.3 µM (inactive)
GI50 (MDA-N): 26.4 µM (inactive)
GI50 (ACHN): 12.3 µM (inactive)
GI50 (NCI-H460): 8.95 µM (inactive)
GI50 (HCT-15): 13.9 µM
GI50 (HCC 2998): 18.4 µM (inactive)
GI50 (786-0): 18.7 µM (inactive)
GI50 (SR): 8.22 µM (inactive)
GI50 (KM12): 21.9 µM (inactive)
GI50 (MCF7): 25.2 µM (inactive)
GI50 (HOP-62): 24.3 µM (inactive)
GI50 (UO-31): 14.5 µM (inactive)
GI50 (DU-145): 11.3 µM (inactive)
GI50 (M14): 20.6 µM (inactive)
GI50 (SNB-19): 31.4 µM (inactive)
GI50 (HT-29): 13 µM (inactive)
